Results on four molecules are retold here after publication PMC8058401, “Identification and Characterization of Zika Virus NS5 Methyltransferase Inhibitors” (Frontiers in Cellular and Infection Microbiology, 2021).

Read-outs that look alike come from different tables or passages of the source. Bounds are passed on as bounds.

In series [1] the test system is ZIKV. The settings on record: cited from earlier work.
The test system of series [2] is ZIKV. The series is described as follows: virus yield reduction assay by qRT-PCR in Huh-7 cells. As to conditions: Huh7 cells, 72 hpi; for effect on viral RNA copy numbers: dose dependent.
A further series has as its system ZIKV (SMGC-1). The series is described as follows: cell viability assay based on ZIKV-induced cytopathic effect (CPE) in Huh-7 cells. As to conditions: Zika virus, Huh-7, read-out: EC50, protection from ZIKV induced CPE.
For another series, the target named is NS5 MTase of WNV. More on the design: method as in Dong et al., 2008. The settings on record: ref Dong et al., 2008; cited from earlier work.
A further series deals with DENV. Also on record: method as in Dong et al., 2008; Tao et al., 2018. The settings on record: ref Dong et al., 2008; Tao et al., 2018; read-out: EC50, anti-virus activity for DENV; cited from earlier work.
For another series, the target named is NS5 MTase of DENV. More on the design: method as in Dong et al., 2008. As to conditions: ref Dong et al., 2008; cited from earlier work.
A further series has as its system WNV. More on the design: method as in Dong et al., 2008; Tao et al., 2018. As to conditions: ref Dong et al., 2008; Tao et al., 2018; read-out: EC50, anti-virus activity for WNV; cited from earlier work.
Series [3] addresses ZIKV NS5 MTase (WT-MTase) (Zika virus, UniProt A0A024B7W1). The series can be described thus: biochemical.
For the next series, the target named is ZIKV NS5 K105A-MTase (Zika virus, UniProt A0A024B7W1, K2625A). The series is described as follows: luminescence-based methyltransferase assay, K105A-MTase.
The target of another series is ZIKV NS5 WT-MTase (Zika virus, UniProt A0A024B7W1). The series is described as follows: surface plasmon resonance assay, WT-MTase. In kind it is binding.
Another series concerns SARS-CoV-2 3CL-protease. Also on record: method as in Jang et al., 2020. The settings on record: dose-dependent; ref Jang et al., 2020; cited from earlier work.
The nature of a further series: CCK-8 cytotoxicity assay. As to conditions: human.

As for `Cc1cc(N)c2cc(NC(=O)Nc3ccc4nc(C)cc(N)c4c3)ccc2n1` [NSC 12155], the “inhibitory activity toward ZIKV” value with ZIKV [1] (no reference given) is on record as “no inhibitory activity”.
Consider `CCN(CC)CCCC(C)Nc1ccnc2cc(Cl)ccc12` (stereo not shown) [chloroquine], for which, in the series on ZIKV [2], the “effect on viral RNA copy numbers” value is given as “significantly reduced viral RNA copy numbers”. Further, the EC50 was 1 to 5 µM in the series with ZIKV [1] (ref Li C. et al., 2017, Han et al., 2019, read-out: EC50, ZIKV infection in vitro) and 2.55 µM in the series on ZIKV (SMGC-1).
As to `Nc1ncnc2c1ncn2[C@@H]1O[C@H](C[C@@H](N)CC[C@H](N)C(=O)O)[C@@H](O)[C@H]1O` [sinefungin], the values for the IC50 (on NS5 MTase of WNV; on NS5 MTase of DENV; in [3]) were roughly 14 µM, roughly 0.63 µM and 4.03 µM, respectively. Also, the EC50 in the series with DENV was 77 µM; in the series on WNV, 27 µM; in the series on ZIKV [1] (ref Dong et al., 2008, Tao et al., 2018, read-out: EC50, anti-virus activity for ZIKV), greater than 50 µM.
Turning to `O=c1c(O)cc([C@H]2Oc3cc(O)cc(O)c3C[C@H]2O)cc2c([C@H]3Oc4cc(O)cc(O)c4C[C@H]3O)cc(O)c(O)c12` [theaflavin], the IC50 on ZIKV NS5 K105A-MTase was found to be 37.8 µM; in series [3], 10.1 µM. This molecule also yielded a Kd at ZIKV NS5 WT-MTase of 64.4 µM. Further, the inhibition at 20 µM in [3] (at 20 μM, read-out: MTase inhibitory activity in initial screening) was greater than 50%. The “inhibitory activity toward SARS-CoV-2 by targeting the 3CL-protease” value with SARS-CoV-2 3CL-protease is “significant inhibitory activity”. Further, the “reduction of viral RNA detected in the supernatant” value in the series on ZIKV [2] (20 μM) is on record as “more than 50%”. The “effect on viral RNA copy numbers” value with ZIKV [2] is “significantly reduced viral RNA copy numbers”. The molecule further gave a CC50 at 24 h in “CCK-8 cytotoxicity assay” greater than 128 µM. The EC50 in the series on ZIKV (SMGC-1) was determined as 8.19 µM.
